Test results reported in paper PMC2994877, “A Full Pharmacological Analysis of the Three Turkey β-Adrenoceptors and Comparison with the Human β-Adrenoceptors” (PLoS ONE, 2010).
Read-outs that look alike come from different tables or passages of the source.

How the values were obtained:
[1] = molecular target: T1, turkey β3C-adrenoceptor (tβ3C) (Meleagris gallopavo, UniProt A0A803YLI8); assay: 3H-CGP12177 whole cell binding, CHO tβ3C cells
[2] = molecular target: T2, turkey β4C-adrenoceptor (tβ4C) (Meleagris gallopavo, UniProt P43141); assay: cell-based; type: cell-based; details: for % isop max: CRE-SPAP, % of 10 µM isoprenaline maximum
T2 construct: expressed in transfected cells
T2 sequence (P43141 whole entry): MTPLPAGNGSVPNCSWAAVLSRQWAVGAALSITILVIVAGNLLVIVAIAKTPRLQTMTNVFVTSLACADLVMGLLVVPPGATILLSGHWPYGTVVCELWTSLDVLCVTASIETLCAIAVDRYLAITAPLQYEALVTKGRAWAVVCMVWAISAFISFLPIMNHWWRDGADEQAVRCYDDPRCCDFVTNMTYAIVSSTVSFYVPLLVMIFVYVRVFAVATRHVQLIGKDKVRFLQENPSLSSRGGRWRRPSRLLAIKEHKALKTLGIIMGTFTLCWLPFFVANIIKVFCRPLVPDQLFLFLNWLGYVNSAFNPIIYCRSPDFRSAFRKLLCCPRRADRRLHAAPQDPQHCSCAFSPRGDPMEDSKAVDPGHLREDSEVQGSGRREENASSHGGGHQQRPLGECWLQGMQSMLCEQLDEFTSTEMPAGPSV

Human β1-adrenoceptor = molecular target: Human β1-adrenoceptor; parameters: method as in PMID 15655528, PMID 20590599; details: Human β1, given for comparison; ref 25 and 30; cited from earlier work
[3] = molecular target: T1, turkey β3C-adrenoceptor (tβ3C); assay: CRE-SPAP production, CHO tβ3C cells; type: cell-based; details: for Emax: read-out: % isop max
Human β3-adrenoceptor = details: Human β3, given for comparison; ref 25 and 30; cited from earlier work
[4] = molecular target: T2, turkey β4C-adrenoceptor (tβ4C); assay: cell-based; type: binding
Human β2-adrenoceptor = molecular target: Human β2-adrenoceptor; parameters: method as in PMID 15655528, PMID 20590599; details: Human β2, given for comparison; ref 25 and 30; cited from earlier work
[5] = tested on: parent CHO CRE-SPAP cells; assay: agonist response in parent CHO CRE-SPAP cells; type: cell-based
Excerpt: The second piece of pharmacological evidence for more than one conformation is the concentrations of antagonists required to inhibit the CGP12177-stimulatory response. […] This is similar to observations at the β1-adrenoceptor in rodents and mammals [6]–[7] [9] [11]. […] There was no response to any ligands, including CGP12177 in the parent CHO CRE-SPAP cells and thus the CGP12177 agonist response was not occurring at a different receptor natively expressed in the cells.

[6] = molecular target: T2, turkey β4C-adrenoceptor (tβ4C); assay: 3H-cAMP accumulation, CHO tβ4C cells; type: cell-based
[7] = CRE-SPAP production, CHO tβ4C cells, read-out: Log EC50 (converted)
[8] = competition with 3H-CGP12177, whole cells, CHO tβ4C, given as log KD, mean ± s.e.m., read-out: Log KD (converted)
[9] = competition with 3H-CGP12177, whole cells, CHO tβ3C, given as log KD, mean ± s.e.m.
[10] = competition with 3H-CGP12177, whole cells, CHO tβ4C, given as log KD, mean ± s.e.m.
[11] = competition with 3H-CGP12177, whole cells, CHO tβ3C, given as log KD, mean ± s.e.m., read-out: Log KD (converted)

T1 sequence (A0A803YLI8 entry or part of it): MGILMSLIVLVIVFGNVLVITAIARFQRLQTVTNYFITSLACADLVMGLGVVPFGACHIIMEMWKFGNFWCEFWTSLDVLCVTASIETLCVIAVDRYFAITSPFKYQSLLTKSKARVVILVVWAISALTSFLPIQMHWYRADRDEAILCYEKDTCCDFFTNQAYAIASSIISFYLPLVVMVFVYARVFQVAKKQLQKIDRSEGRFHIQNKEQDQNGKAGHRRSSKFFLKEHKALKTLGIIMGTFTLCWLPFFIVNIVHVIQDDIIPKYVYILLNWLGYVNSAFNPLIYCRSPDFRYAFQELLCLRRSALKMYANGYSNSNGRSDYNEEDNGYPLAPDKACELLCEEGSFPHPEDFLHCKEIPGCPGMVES

Compound | Kd [1] [nM] | % isop max ([2]; CHO tβ4C cells) [%] | Log KD (Human β1-adrenoceptor) | EC50 [3] [nM] | Emax [3] [%] | Log KD (Human β3-adrenoceptor) | Kd [4, 8] [nM] | Log KD (Human β2-adrenoceptor) | further results
CNC[C@H](O)c1ccc(O)c(O)c1 [Adrenaline] | 1550 | 99.6±2.7 | −5.15 | 63.1 | 106 ± 2.7 | −4.70 | 1700 | −6.13 | EC50 [2, 7]: 191 nM
Br.COC(=O)COc1ccc(CC(C)NC[C@H](O)c2cccc(Cl)c2)cc1 (stereo partly shown) [BRL35135A] | – | – | −6.08 | – | – | −6.73 | – | −7.38 | Log KD [1, 9]: −7.42±0.06; Log KD [4, 10]: −6.39±0.03
C[C@H](Cc1ccc(OCC(=O)O)cc1)NC[C@H](O)c1cccc(Cl)c1 [BRL37344] | – | 97.1±3.0 | −5.19 | – | – | −6.45 | – | −6.51 | Log KD [1, 9]: −6.28±0.06; Log EC50 ([2]; CRE-SPAP production, CHO tβ4C cells): −7.15±0.07; Log EC50 ([3]; CRE-SPAP production, CHO tβ3C cells): −7.67±0.04; % isop max ([3]; CRE-SPAP, % of 10 µM isoprenaline maximum, CHO tβ3C cells): 88.5±4.2%; Log KD [4, 10]: −5.89±0.10
CC(C)(Cc1c[nH]c2ccccc12)NCC(O)COc1ccccc1C#N (stereo not shown) [Bucindolol] | 0.191 | – | −9.31 | – | – | −8.04 | 0.389 | −9.99 | –
Cc1ccc(Cl)c(OCC(O)CNC(C)(C)C)c1 (stereo not shown) [Bupranolol] | – | – | −8.51 | – | – | −7.04 | 6.61 | – | Kd [1, 11]: 0.851 nM
COc1ccc(OC)c(C(O)C(C)NC(C)(C)C)c1 (stereo not shown) [Butoxamine] | 1020 | – | −4.85 | – | – | >−4 | 12600 | −6.23 | –
CC(C)(C)NCC(O)COc1cccc2[nH]c(=O)[nH]c12 (stereo not shown) [CGP12177] | – | 53.4±2.2 | – | – | – | – | – | – | agonist response [5]: no response; % isop max ([6]; 3H-cAMP, overall response as % of 10 µM isoprenaline, tβ4C): 17.4±0.7%; % site 1 ([6]; % of response occurring via site 1, tβ4C): 41.3±7.2%
C[C@H](Cc1ccc2c(c1)OC(C(=O)[O-])(C(=O)[O-])O2)NC[C@H](O)c1cccc(Cl)c1.[Na+].[Na+] [CL316243] | – | – | >−3 | – | – | −5.11 | – | – | Log KD [1, 9]: >−4; Log KD [4, 10]: >−4
CC(C)NCC(O)c1ccc(N)c(C#N)c1 (stereo not shown) [Cimaterol] | – | 98.2±2.3 | – | – | 103 ± 2.2 | −5.28 | – | −7.26 | –
CC(C)(C)NCC(O)c1cc(Cl)c(N)c(Cl)c1 (stereo not shown) [Clenbuterol] | 41.7 | 97.2±1.9 | −6.62 | 0.525 | 97.8 ± 4.4 | −5.35 | – | −7.90 | EC50 [2]: 40.7 nM; Kd [4]: 363 nM
CC(CCc1ccc(O)cc1)NCCc1ccc(O)c(O)c1 (stereo not shown) [Dobutamine] | – | 110.4±2.4 | −5.23 | – | 101 ± 3.7 | −5.09 | 1000 | −5.84 | Kd [1, 11]: 2690 nM; EC50 [2, 7]: 158 nM; EC50 ([3]; CRE-SPAP production, CHO tβ3C cells, read-out: Log EC50 (converted)): 427 nM
CC(Cc1ccc(O)cc1)NCC(O)c1cc(O)cc(O)c1 (stereo not shown) [Fenoterol] | 204 | – | −5.04 | 0.832 | – | −5.39 | – | −7.03 | EC50 [2]: 8.51 nM; Kd [4]: 603 nM
COc1ccc(CC(C)NCC(O)c2ccc(O)c(NC=O)c2)cc1 (stereo not shown) [Formoterol] | 11 | – | – | 0.0447 | – | −5.82 | – | – | EC50 [2]: 0.166 nM; Kd [4]: 20 nM
